Results taken from patent US7122666B2, “Heteroaryl-substituted pyrrole derivatives, their preparation and their therapeutic uses” (Sankyo Company, Limited, priority 1999, dated 2006).
pIC50: −log10 of the molar value.

Columns and labels:
[1] = system: TNFα production in human whole blood; assay: Inhibition of the production of TNFα in vitro in human whole blood (Test Examples 1 and 1′); type: cell-based; conditions: Table 7′, lipopolysaccharide 10 μg/ml, 6 hours at 37° C., plasma TNFα by ELISA, least squares, read-out: Inhibitory Effect on TNFα Production (in vitro) IC50
Experimental: (§1) Inhibition of the Production of the Cytokines IL-1β and TNFα in Vitro in Human Whole Blood
(§2) This test was performed according to the method of Hartman, et al. [D. A. Hartman, S. J. Ochalski and R. P. Carlson; The effects of anti-inflammatory and antiallergic drugs on cytokine release after stimulation of human whole blood by lipopolysaccharide and zymosan A: Inflamm. Res., 44, 269 (1995)].
(§3) Peripheral blood samples were collected in the presence of heparin from healthy adult volunteers. 1000 μl of whole blood were added to an Eppendorf tube to which 2 μl of a dimethyl sulfoxide solution of the test compound had been added in advance, after which 10 μl of lipopolysaccharide (E. coli 026: B6 origin, Difco) were added as a stimulant (final concentration of said lipopolysaccharide: 10 μg/ml). This was mixed well and then incubated for 6 hours at 37° C. in the presence of 5% CO2. At the end of the incubation, the mixture was cooled to 4° C. to stop the reaction, followed immediately by centrifuging for 5 minutes at 14,000 rpm to separate and collect the supernatant plasma. The IL-1β and TNFα produced and released into the plasma were measured using a commercially available enzyme immunoassay (ELISA) kit [Cayman (IL-1β) and Genzyme (TNFα)]. The procedure was also repeated in the absence of test compound. The inhibitory effect [IC50 (μM)] on the production of IL-1β and TNFα was determined from the amounts of the cytokines produced in the presence and absence of the test compound.
(§4) Inhibition of the Production of the Cytokines IL-1β and TNFα In Vitro in Human Whole Blood
as §3, with “O26:” for “026:”, “plasma” for “plasma.”, “kits” for “kit”, “determined by the method of least squares” for “determined”

TNFα production = assay: Inhibition of the production of TNFα in vivo (Test Examples 2 and 2′); conditions: Table 9′; Balb/c mice, oral administration 30 minutes before intravenous lipopolysaccharide, plasma TNFα 1 hour after LPS
Experimental: This test was performed according to the method of Ochalski, et al. [S. J. Ochalski, D. A. Hartman, M. T. Belfast, T. L. Walter, K. B. Glaser and R. P. Carlson; Inhibition of endotoxin-induced hypothermia and serum TNF-α levels in CD-1 mice by various pharmacological agents: Agents Actions 39, C52–C54 (1993)].
The production of TNFα was induced in mice by the intravenous injection of lipopolysaccharide (E. coli O26: B6 origin, Difco) which was prepared to a concentration of 0.045 mg/ml using physiological saline. The saline preparation of lipopolysaccharide was administered at the rate of 10 ml/l kg of body weight into the caudal vein of Balb/c mice (males, age 5–7 weeks, body weight: approx. 22 g, Japan Charles River) which had been fasted overnight starting on the day before the experiment. One hour after administration, the mice were laparotomized under ether anaesthesia and blood was collected from the abdominal vena cava. Blood collection was performed using a 1 ml volume disposable syringe equipped with a 23G needle which had been moistened with heparin on the inside wall. Following blood collection, the blood was immediately transferred to a 1.5 ml volume Eppendorf tube and centrifuged at 4° C. and 14,000 rpm to separate the plasma. This plasma was then stored at −20° C. until measurement of TNFα. The measurement of the amount of TNFα was performed with a commercially available enzyme immunoassay (ELISA) kit (Mouse TNFα ELISA KIT, Genzyme).
To determine the inhibitory activity of the test compounds, each test compound was suspended in a 0.5% tragacanth solution and then administered orally to the Balb/c mice at the rate of 10 ml/1 kg of body weight 30 minutes before injection of lipopolysaccharide. The level of TNFα production was then determined as described above. In the control group, 0.5% tragacanth solution was administered at the rate of 10 ml/1 kg of body weight to the test mice instead of the solutions of the test compounds. A minimum of 3 dose levels of the test compound was administered to groups of 5 test mice for each test compound. The inhibitory rate relative to the control group was calculated for each dose level. From the inhibitory rates and the dosages, ID50 values were calculated by the least squares method.
The production of TNFα was induced in mice by the intravenous injection of lipopolysaccharide (E. coli O26: B6 origin, Difco) which was prepared to a concentration of 0.045 mg/ml using physiological saline. […]
To determine the inhibitory activity of the test compounds, each test compound was suspended in a 0.5% tragacanth solution and then administered orally to the Balb/c mice at the rate of 10 ml/1 kg of body weight 30 minutes before injection of lipopolysaccharide. The level of TNFα production was then determined as described above. […]

[2] = system: IL-1β production in human whole blood; assay: Inhibition of the production of IL-1β in vitro in human whole blood (Test Examples 1 and 1′); type: cell-based; conditions: Table 8′, lipopolysaccharide 10 μg/ml, 6 hours at 37° C., plasma IL-1β by ELISA, least squares, read-out: Inhibitory Effect on IL-1β Production (in vitro) IC50
Experimental: as §1, §2, §3, §4
as §3, with “O26:” for “026:”, “plasma” for “plasma.”, “kits” for “kit”, “determined by the method of least squares” for “determined”

## CC1C[C@H]2C=C(c3c[nH]c(-c4ccc(F)cc4)c3-c3ccncc3)CCN2C1 (stereo partly drawn) [Example 16′, 2-(4-Fluorophenyl)-4-[(8aS)-2-methyl-1,2,3,5,6,8a-hexahydroindolizin-7-yl]-3-(pyridin-4-yl)1H-pyrrole]
[1]
  pIC50: 8.66
TNFα production
  Inhibitory Effect on TNFα Production (in vivo) IC50: 0.71 mg/kg
[2]
  pIC50: 8.77
